Here are results for 3 compounds from patent US9580524B2, “Vinylcyclopropane, monomer composition, polymer, polymer composition, and article” (Dexerials Corporation, priority 2014, dated 2017).

Data set [1] is described as follows: Monomer solubility in various solvents. The settings on record: 40 mg monomer in 1.0 mL. Type of data set: physicochemical. On the procedure: The solubility of 40 mg of the obtained monomer in 1.0 mL of various solvents (methyl ethyl ketone (MEK), acetone, propylene glycol monomethyl ether acetate (PGMEA), and cyclohexanone) was evaluated.
Data set [2] is described as follows: Polymer dynamic viscoelasticity (DMA, tension mode) of the cured product. As to conditions: for Tg (glass-transition temperature): maximum of tan δ, frequency 11.0 Hz. The class given is physicochemical. As for the experimental part:
The obtained monomer was homogenized with 0.5 parts by mass of PERHEXA HC (producer: NOF Corporation) and 0.2 mL of acetone added thereto, was subsequently poured into a 10 mm×40 mm×0.5 mm silicone rubber sheet mold prepared on an aluminum plate, and was transferred into a vacuum oven. Acetone solvent was first vaporized while maintaining the temperature at room temperature and the pressure at 20 cmHg to 40 cmHg, and thereafter the pressure was restored to normal pressure and curing was performed for 5 hours at 140° C. to prepare a cured product. The cured product that was prepared was evaluated by measurement as described below using a tension mode of a dynamic mechanical analyzer (DMA).
The cured product was set in the dynamic mechanical analyzer (producer: TA Instruments, product name: RSA3) and the device was used to measure the storage modulus (E′) in a temperature range of from 30° C. to 300° C. with a heating rate of 10.0° C./min. Furthermore, the temperature corresponding to a maximum value of tan δ (loss modulus/storage modulus) obtained under a measurement condition of a frequency of 11.0 Hz was taken to be the glass-transition temperature (Tg).

For data set [3] the following is noted: background statement; cited from earlier work.
The nature of data set [4]: Volume change upon polymerization (monomer and polymer density by dry automatic pycnometer). As to conditions: for Volume change: ((Monomer density)−(Polymer density))/(Monomer density)×100, positive = expansion, negative = shrinkage; for Polymer density: after polymerization; for Polymer density / Monomer density: 25° C.; for Monomer density: prior to polymerization. The class given is physicochemical. On the procedure:
Volume change relative to monomer volume refers to the change in volume of the polymer relative to the volume of the monomer or monomers that are constituent components of the polymer. This volume change relative to monomer volume is obtained through the following equation by measuring the density of the monomer(s) at 25° C. prior to polymerization (monomer density) and the density of the polymer at 25° C. after polymerization (polymer density). ((Monomer density)−(Polymer density))/(Monomer density)×100(%)
First, polymerization of the obtained monomer (compound represented by structural formula (6)) was performed as follows.
A freezing ampoule (20 mL) was charged with 4.03 mg of AIBN (4 mol %), 440.2 mg (0.61 mmol) of Ad-MVCP, and 0.267 g (0.31 mL) of toluene, and the monomer was dissolved. Thereafter, freeze drying was performed three times and dissolved oxygen was removed. The freezing ampoule was immersed in an oil bath and was heated for 48 hours at 60° C. to polymerize the monomer. After polymerization, the freezing ampoule was cooled by liquid nitrogen to quench radicals. Next, 50 mL of toluene was added to the freezing ampoule in order to dissolve undissolved components other than the polymer and suction filtration was then performed. Polymer filtered onto filter paper as a result was washed with toluene and acetone, was vacuum dried for 48 hours at 100° C., and was collected as a white solid polymer. The collected polymer was used as an evaluation sample.
The volume change upon polymerization was calculated using the following equation by measuring the monomer density and polymer density of each sample prepared by the procedure described above using a dry automatic pycnometer (AccuPyc II 1340 produced by Shimadzu Corporation). ((Monomer density)−(Polymer density))/(Monomer density)×100(%)
A positive calculated value indicates volume expansion whereas a negative calculated value indicates volume shrinkage.
Note that in Comparative Example 3, polymerization of the monomer was performed by bulk polymerization based on the aforementioned document. A freezing ampoule (20 mL) was charged with 15.8 mg (0.096 mmol) of AIBN and 1.000 g (2.41 mmol) of Me-MVCP, and the monomer was dissolved. Thereafter, freeze drying was performed three times and dissolved oxygen was removed. The freezing ampoule was immersed in an oil bath and was heated for 48 hours at 60° C. to polymerize the monomer. After polymerization, the freezing ampoule was cooled by liquid nitrogen to quench radicals. Next, 50 mL of toluene was added to the freezing ampoule in order to dissolve undissolved components other than the polymer and suction filtration was then performed. Polymer filtered onto filter paper as a result was sufficiently washed with toluene and acetone, was vacuum dried for 48 hours while heating at 100° C., and was collected as a white solid polymer. The collected polymer was used as an evaluation sample.
Note that in Example 2, 0.159 g (0.479 mmol) of DCP, 0.341 g (0.479 mmol) of Ad-MVCP, and 0.2 mL of toluene (dehydrated) were added into an ampoule with a stirrer, were heated to 70° C., and were homogenized by stirring. After performing cooling to room temperature, a dilute solution of AIBN (6.3 mg (0.038 mmol) of AIBN dissolved in 0.28 mL of toluene (dehydrated)) was added to the ampoule. The ampoule was sealed using a gas burner after performing freeze degassing of the ampoule. The ampoule was immersed in an oil bath and a reaction was carried out for 48 hours at 60° C. After the reaction, the ampoule was immersed in liquid nitrogen and a polymer was collected. The resultant polymer was sufficiently washed with toluene and acetone and was vacuum dried for 48 hours while heating at 100° C., and a white solid polymer was collected. The collected polymer was used as an evaluation sample.
Ad-MVCP in an amount of 0.153 g (0.215 mmol) and DCP in an amount of 0.072 g (0.216 mmol) were dissolved and homogenized in 0.3 mL of acetone. […]

Data set [5] can be described thus: Polymer heat resistance (thermogravimetric analyzer). Type of data set: physicochemical. The settings on record: homopolymer. On the procedure:
Heat resistance of the polymer used in (i) evaluation of volume change upon polymerization was evaluated using a thermogravimetric analyzer (producer: Seiko Instruments Incorporated, product name: EXSTAR6000). Furthermore, thermogravimetric change of the obtained polymer was measured to obtain a temperature at which a 10% reduction in weight was reached and the 10% weight loss temperature was taken to be the pyrolysis temperature (Td^10).

Turning to `C=CC1CC1(C(=O)OC12CC3CC(CC(C3)C1)C2)C(=O)OC12CC3CC(CC(C3)C1)C2` (stereo not shown) [Comparative Example 2, 1,1-bis[(1-adamantyloxy)carbonyl]-2-vinylcyclopropane], the Solubility entry is listed as “Poor” in data set [1] (Acetone), “Mediocre” in data set [1] (Cyclohexanone), “Poor” in data set [1] (MEK) and “Poor” in data set [1] (PGMEA). Besides, in data set [2], the “Tg (glass-transition temperature)” value was 23 °C. In addition, the “solubility in solvents such as acetone” value in data set [3] is on record as “poor”. The Volume change entry in data set [4] is “+4.3%”. This compound also came in with a Polymer density in data set [4] of 1.127 g/mL. In data set [4], the Monomer density was determined as 1.178 g/mL. The “Td^10 (pyrolysis temperature, 10% weight loss temperature)” value in data set [5] came to 361 °C.
Turning to `C=CC1CC1(C(=O)OC12CC3CC(CC(C3)C1)C2)C(=O)OC12CC3CC(C1)CC(OC(=O)C1(C(=O)OC45CC6CC(CC(C6)C4)C5)CC1C=C)(C3)C2` (stereo not shown) [Example 1, 1,3-bis[(1-adamantyloxycarbonyl-2-vinylcyclopropane-1-yl)carbonyloxy]adamantane], the Solubility result in data set [1] (Acetone), in data set [1] (Cyclohexanone), in data set [1] (MEK) and in data set [1] (PGMEA) was “Excellent” each time. The “E′ (storage modulus)” value in data set [2] (50° C., 5 hours at 140° C.) is recorded as 1.10 × 10^9 Pa; in data set [2] (120° C.) it was 7.40 × 10^8 Pa; in data set [2] (140° C.), 6.60 × 10^8 Pa; in data set [2] (160° C.), 7.00 × 10^8 Pa. The “Tg (glass-transition temperature)” value in data set [2] turned out to be 235 °C. In addition, the Volume change entry in data set [4] is “+6.1%”. For the same compound, the Polymer density in data set [4] turned out to be 1.198 g/mL. The same compound yielded a Monomer density in data set [4] of 1.275 g/mL. In addition, the “Td^10 (pyrolysis temperature, 10% weight loss temperature)” value in data set [5] is 399 °C.
With “tricyclodecane dimethanol dimethacrylate [Comparative Example 1]”, the “E′ (storage modulus)” value in data set [2] (50° C., 5 hours at 140° C.) is 1.70 × 10^9 Pa; in data set [2] (120° C.) it was 9.60 × 10^8 Pa; in data set [2] (140° C.), 8.00 × 10^8 Pa; in data set [2] (160° C.), 6.60 × 10^8 Pa. Moreover, the “Tg (glass-transition temperature)” value in data set [2] is above 271.1 °C. Moreover, the Volume change in data set [4] is −8.5%. In addition, in data set [4], the Polymer density came out at 1.194 g/mL. In data set [4], this compound came in with a Monomer density of 1.101 g/mL.
